From article PMC7993378, “Inhibition of bacterial and human zinc-metalloproteases by bisphosphonate- and catechol-containing compounds” (Journal of Enzyme Inhibition and Medicinal Chemistry, 2021)
Like-named read-outs stand apart in the source and are kept apart here.

Assays:
[1] = molecular target: T1, pseudolysin (PLN) (Pseudomonas aeruginosa, UniProt P14756); assay: PLN inhibition, continuous initial rate assay with McaRPPGFSAFK(Dnp)-OH after 15 min preincubation; assay type: biochemical; conditions: for inhibition at 100 µM: read-out: inhibition (reduction of activity) of PLN
T1 construct: purchased Calbiochem (San Diego, CA, USA)
T1 sequence (P14756 198-498): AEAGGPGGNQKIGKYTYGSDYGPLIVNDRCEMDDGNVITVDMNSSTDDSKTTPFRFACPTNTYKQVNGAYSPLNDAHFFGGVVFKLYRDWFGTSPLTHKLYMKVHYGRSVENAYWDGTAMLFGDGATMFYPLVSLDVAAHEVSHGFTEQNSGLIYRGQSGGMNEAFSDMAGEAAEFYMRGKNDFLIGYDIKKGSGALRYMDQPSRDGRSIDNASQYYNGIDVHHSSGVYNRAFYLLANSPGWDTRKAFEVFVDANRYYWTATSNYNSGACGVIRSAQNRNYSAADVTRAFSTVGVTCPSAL
Method: (§1) The inhibitorial power of 100 μM of the eight catechol containing compounds was tested against the two human metalloproteases MMP-9(T) and MMP-14 and the three bacterial metalloproteases ALN, PLN and TLN (Figure 1). In order to detect putative slow and slow-tight binding, the catechol derivatives were first incubated along with the enzyme for 15 min at 37 °C. In controls without inhibitor present, enzymes and buffer were preincubated under identical conditions. Thereafter, the enzyme reaction was started by adding the relevant […] substrate and the rate was followed continuously for 30 min. […] The activity was reduced with more than 50%, by MT336 for the two MMPs, by BF482 for MMP-9(T) and by ML33 for ALN (Figure 1). In all other inhibitory studies with catechol containing compounds, the activity was reduced between 0 and 45%.
(§2) To assure that this is correct, the inhibitors BF471 and BF489 were tested against varying McaRPPGFSAFK(Dnp)-OH using TLN as described in the Experimental section. […] It should be noted that the reaction was started by adding the enzyme to the substrate-inhibitor mixtures. In the case of slow binding, the full potential of these inhibitors would not be realised by this inhibitory assay. When the activity was reduced by more than […], experiments were performed with varying concentrations of the catechol derivatives. IC50 values were obtained from dose response plots, and Ki values were determined from the IC50 values based on substrate competitive inhibition. By the use of Ki values, we can compare the binding strength of the compounds for the different enzymes and not only comparing the compounds ability to bind one enzyme. There are several possible explanations for the deviation in determined Ki value of BF471 and BF489 for TLN from the dose response plots and the double inverse plots.
(§3) The various inhibitors were dissolved in 100% DMSO giving an inhibitor concentration of 10 mM. All the inhibitory and control experiments contained a total and fixed concentration of 1.0% DMSO. […] The fixed enzyme concentration were as follows; 0.28 nM MMP-9(T), 0.05 nM MMP-9(A), 1.0 nM MMP-14, 1.4 nM ALN, 0.5 nM PLN and 0.21 nM TLN. Enzymes with and without inhibitors were pre-incubated for 15 min at 37 °C, the initial rate assays were started by adding the substrate and the reaction was followed for 30 min. Assays were performed using a Spectra Max Gemini EM micro-plate reader (Molecular Devices) or a Clario Star micro plate reader (CLARIOstar® BMG LABTECH). Assays were performed at 37 °C, using an excitation wavelength of 320 nm and an emission wavelength of 405 nm with a slit width of 10 nm. The IC50 values were calculated either in Sigma Plot (Enzyme kinetics 1.3 module) or in Graph Pad Prism 5 using Equations (1) or (2) depending on the concentration span of the used inhibitor: (1) vi/v0= 1/(1+ 10^(pIC50−pI)) (2) vi/v0= 1/(1+ [I]/IC50) where vi is the enzyme activity in the presence of inhibitor, v0 the activity in the absence of inhibitor, pI=−log [Inhibitor] in M and pIC50 = −log IC50 in M. All experiments were performed in at least triplicate.

[2] = molecular target: T2, aureolysin (ALN) (Staphylococcus aureus, UniProt P81177); assay: ALN inhibition, continuous initial rate assay with McaRPPGFSAFK(Dnp)-OH after 15 min preincubation; assay type: biochemical; conditions: for inhibition at 100 µM: read-out: inhibition (reduction of activity) of ALN, 100 μM compound, 15 min preincubation at 37 °C, 4 μM substrate
T2 construct: purchased BioCentrum Ltd (Kraków, Poland)
T2 sequence (P81177 209-509): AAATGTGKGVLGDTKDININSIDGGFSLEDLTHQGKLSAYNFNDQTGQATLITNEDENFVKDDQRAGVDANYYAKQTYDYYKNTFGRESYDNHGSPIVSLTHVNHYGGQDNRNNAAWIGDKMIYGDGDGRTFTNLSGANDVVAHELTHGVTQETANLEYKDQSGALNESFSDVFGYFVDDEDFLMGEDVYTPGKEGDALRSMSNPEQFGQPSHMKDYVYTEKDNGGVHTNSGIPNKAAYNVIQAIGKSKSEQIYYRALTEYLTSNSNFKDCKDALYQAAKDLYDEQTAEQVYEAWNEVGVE
Method: as §1, §2, §3

[3] = molecular target: T3, Human MT1-MMP/MMP-14 (catalytic domain) (Homo sapiens, UniProt P50281); assay: MMP-14 inhibition, continuous initial rate assay with McaPLGL(Dpa)AR-NH2 after 15 min preincubation; assay type: biochemical; conditions: for inhibition at 100 µM: 100 μM compound, 15 min preincubation at 37 °C, 4 μM substrate, read-out: inhibition (reduction of activity) of MMP-14; for Ki: substrate McaPLGL(Dpa)AR-NH2 4 µM, 4–6 experiments, read-out: Ki ± sd MMP-14
T3 construct: Human MT1-MMP/MMP-14 (catalytic domain); purchased Calbiochem (San Diego, CA, USA)
Method: as §1, §2, §3

[4] = molecular target: T4, trypsin-activated MMP-9 from THP-1 cells (MMP-9(T)) (Homo sapiens, UniProt P14780); assay: MMP-9(T) inhibition, continuous initial rate assay with McaPLGL(Dpa)AR-NH2 after 15 min preincubation; assay type: biochemical; conditions: for inhibition at 100 µM: read-out: inhibition (reduction of activity) of MMP-9(T); for Ki: substrate McaPLGL(Dpa)AR-NH2 4 µM, 4–6 experiments, read-out: Ki ± sd MMP-9(T)
T4 construct: endogenous in cells; host or cells: THP-1 cells stimulated with PMA
T4 sequence (P14780 107-707 limits assumed): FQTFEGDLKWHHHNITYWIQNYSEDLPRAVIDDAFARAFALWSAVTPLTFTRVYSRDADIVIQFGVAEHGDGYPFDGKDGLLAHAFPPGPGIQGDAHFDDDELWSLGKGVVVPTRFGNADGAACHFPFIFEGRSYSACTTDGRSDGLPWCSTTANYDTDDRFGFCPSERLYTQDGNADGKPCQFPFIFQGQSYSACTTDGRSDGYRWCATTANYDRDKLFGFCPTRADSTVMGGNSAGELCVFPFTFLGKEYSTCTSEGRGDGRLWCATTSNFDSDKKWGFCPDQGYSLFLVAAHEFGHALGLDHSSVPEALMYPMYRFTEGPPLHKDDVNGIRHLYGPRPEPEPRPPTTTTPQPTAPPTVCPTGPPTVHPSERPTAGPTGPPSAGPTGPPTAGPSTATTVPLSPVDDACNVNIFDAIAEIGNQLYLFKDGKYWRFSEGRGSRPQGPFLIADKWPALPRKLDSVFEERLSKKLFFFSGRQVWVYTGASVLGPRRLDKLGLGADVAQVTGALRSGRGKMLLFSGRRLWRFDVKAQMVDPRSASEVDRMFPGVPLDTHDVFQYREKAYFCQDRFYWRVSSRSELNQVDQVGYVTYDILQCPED
Method: as §1, §2
The purified proMMP-9 was activated by trypsin, by mixing approximately 300 µg of proMMP-9 with trypsin (31 μg/ml) for 10 min at 37 °C in 0.1 M Hepes pH 7.5, 0.005% Brij35% and 10 mM CaCl2. The activation and processing of MMP-9 were terminated by adding a 50 times excess of SBTI (2.7 mg/ml) in relation to trypsin and after 10 min incubation at room temperature, the mixture was transferred and kept on ice during the kinetic and inhibition kinetic measurements. After activation, the activity was determined with 10 µM of McaPLGL(Dpa)AR-NH2 in 0.1 M Hepes pH 7.5, 0.005% Brij35% and 10 mM CaCl2 in a total assay volume of 100 µL, at 37 °C. Initial rates were measured at an excitation wavelength of 320 nm and an emission wavelength of 405 nm with a slit width of 10 nm using a Perkin Elmer LS 50 Luminescence spectrometer and the FL WinLab Software Package (Perkin Elmer). The amount of active MMP-9 was determined by active site titration using galardin as described previously.
The various inhibitors were dissolved in 100% DMSO giving an inhibitor concentration of 10 mM. All the inhibitory and control experiments contained a total and fixed concentration of 1.0% DMSO. […] The fixed enzyme concentration were as follows; 0.28 nM MMP-9(T), 0.05 nM MMP-9(A), 1.0 nM MMP-14, 1.4 nM ALN, 0.5 nM PLN and 0.21 nM TLN. Enzymes with and without inhibitors were pre-incubated for 15 min at 37 °C, the initial rate assays were started by adding the substrate and the reaction was followed for 30 min. Assays were performed using a Spectra Max Gemini EM micro-plate reader (Molecular Devices) or a Clario Star micro plate reader (CLARIOstar® BMG LABTECH). Assays were performed at 37 °C, using an excitation wavelength of 320 nm and an emission wavelength of 405 nm with a slit width of 10 nm. […]

[5] = molecular target: APMA-activated recombinant MMP-9 (rMMP-9(A)) (Homo sapiens, UniProt P14780); assay: rMMP-9(A) inhibition in Tris-HCl buffer with varied preincubation time, followed continuously for 3 h; assay type: biochemical; conditions: 100 µM, 0.1 M Tris-HCl pH 7.5, N = 4
Chain of APMA-activated recombinant MMP-9 (rMMP-9(A)) (P14780 107-444 limits assumed): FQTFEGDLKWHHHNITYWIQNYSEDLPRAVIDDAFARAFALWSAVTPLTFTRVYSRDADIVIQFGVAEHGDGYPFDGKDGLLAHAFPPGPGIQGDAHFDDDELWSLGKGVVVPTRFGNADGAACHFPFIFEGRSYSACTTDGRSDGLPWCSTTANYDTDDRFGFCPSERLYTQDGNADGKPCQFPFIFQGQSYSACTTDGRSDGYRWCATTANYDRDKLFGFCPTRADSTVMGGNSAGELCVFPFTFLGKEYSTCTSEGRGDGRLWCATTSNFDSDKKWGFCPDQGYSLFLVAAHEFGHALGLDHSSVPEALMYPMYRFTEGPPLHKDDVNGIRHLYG
Source text: Except for ML33, all catechol derivatives have previously been tested for binding to MMP-2, MMP-8 and MMP-9[60]. […] The Ki values for MMP-9 in the present study were higher than the IC50 values in the previous study, the exception was MT336 for which we obtained a lower value. It is not easy to point out a single factor in the experiments contributing to deviations between the studies. Both studies used a pH of 7.5 but the buffer compositions were slightly different. […] Tauro et al.[60] used a commercial active MMP-9 produced in E-coli that only contained the catalytic domain and the fibronectin-like (FnII) module. […] A factor that may contribute to differences is that after preincubation of MMP-9 with catechol derivatives and adding of the substrate for starting the reaction, we followed the reaction continuously for 30 min, while Tauro et al.[60] used an endpoint assay allowing the reaction to proceed for 2 to 4 h before the fluorescence was measured. We did some tests to determine if some of these differences could affect the binding results. In the test experiments, we used rMMP-9(A) which differs from the MMP-9(T) by a slightly different N-terminal and a largely truncated C-terminal HPX domain[57]. One hundred µM of BF466 was tested where the 0.1 M Hepes buffer pH 7.5 was exchanged to a 0.1 M Tris-HCl buffer pH 7.5. The rMMP-9(A) was preincubated with BF466 for 0, 15 and 30 min at 37 °C and the reaction was started by the addition of the substrate McaPLGL(Dpa)AR-NH2 (4 µM in the assay) following the reaction continuously for 3 h. The controls without BF466 were treated identically. […] The reaction was allowed to proceed for 4 h, and the reaction was stopped by addition of EDTA (end concentration 10 mM) and the relative fluorescence intensity determined.
The expression and purification of recombinant human full-length proMMP-9 (rpMMP-9) from Sf9 insect cells were performed as described previously. […] The amount of active MMP-9 was determined by active site titration using galardin also described previously.

[6] = system: COc1ccc2c(CC(=O)N[C@@H](CCCNC(=N)N)C(=O)N3CCC[C@H]3C(=O)N3CCC[C@H]3C(=O)NCC(=O)N[C@@H](Cc3ccccc3)C(=O)N[C@@H](CO)C(=O)N[C@@H](C)C(=O)N[C@@H](Cc3ccccc3)C(=O)N[C@@H](CCCCNc3ccc([N+](=O)[O-])cc3[N+](=O)[O-])C(=O)O)cc(=O)oc2c1; assay: purified protein, by the assay type; conditions: other: 1% DMSO; regarded as uncertain, highest substrate concentration 10 µM; pH 7.5
Method: For TLN, the Km value was also determined with a DMSO concentration of 2%.
Km values were determined for McaPLGL(Dpa)AR-NH2 with APMA-activated recombinant MMP-9 (rMMP-9(A)), trypsin-activated MMP-9 from THP-1 cells (MMP-9(T)) and MMP-14, and for Mca[sequence](Dnp)-OH with ALN, PLN and TLN. Substrate concentrations used were 1–10 µM in a total volume of 100 µL of 0.1 M Hepes pH 7.5 containing 10 mM CaCl2, 0.005% Brij-35 and 1.0% DMSO. […] Initial rate experiments were performed as described above for the determination of enzyme activity of MMP-9 during activation and the same excitation and emission wavelengths were used for both substrates.

[7] = molecular target: T5, thermolysin (TLN) (Bacillus thermoproteolyticus, UniProt P00800); assay: TLN inhibition, continuous initial rate assay with McaRPPGFSAFK(Dnp)-OH after 15 min preincubation; assay type: biochemical; conditions: for inhibition at 100 µM: 100 μM compound, 15 min preincubation at 37 °C, 4 μM substrate, read-out: inhibition (reduction of activity) of TLN; for Ki: substrate McaRPPGFSAFK(Dnp)-OH 4 µM, 4–6 experiments, read-out: Ki ± sd TLN
T5 construct: purchased Calbiochem (San Diego, CA, USA)
T5 sequence (P00800 233-548): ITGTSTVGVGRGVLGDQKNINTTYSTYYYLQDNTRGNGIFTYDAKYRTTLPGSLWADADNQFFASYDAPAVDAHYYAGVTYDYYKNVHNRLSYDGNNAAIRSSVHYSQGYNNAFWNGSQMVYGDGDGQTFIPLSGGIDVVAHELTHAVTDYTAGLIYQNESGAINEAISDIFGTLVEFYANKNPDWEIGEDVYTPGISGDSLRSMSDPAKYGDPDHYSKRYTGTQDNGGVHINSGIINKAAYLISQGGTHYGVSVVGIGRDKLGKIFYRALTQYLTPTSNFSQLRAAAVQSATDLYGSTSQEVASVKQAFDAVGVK
Method: as §1, §2, §3

[8] = molecular target: T6, TLN (Bacillus thermoproteolyticus, UniProt P00800); assay: TLN inhibition against varying McaRPPGFSAFK(Dnp)-OH, reaction started by adding enzyme (double inverse plots); assay type: biochemical; conditions: no preincubation, read-out: Ki TLN from varying substrate
T6 construct: purchased Calbiochem (San Diego, CA, USA)
T6 sequence (P00800 233-548): as above
Method: as §2

[9] = catechol compounds, Ki from IC50, substrate competitive
[10] = 100 μM compound, 15 min preincubation at 37 °C, 4 μM substrate

| Molecule | Ki [1] [µM] | inhibition at 100 µM [2] [%] | inhibition at 100 µM [3] [%] | inhibition at 100 µM [4, 10] [%] | Ki [4, 9] [µM] | other results |
| --- | --- | --- | --- | --- | --- | --- |
| O=S(=O)(Nc1cccc(O)c1O)c1ccc(-c2ccccc2)cc1 [ML32] | 38 ± 8 | > 50 | > 50 | > 50 | 51 ± 17 | inhibition at 100 µM [1]: > 50%; Ki [3, 9]: 19 ± 0.8 µM |
| O=S(=O)(NCc1cccc(O)c1O)c1ccc(-c2ccccc2)cc1 [BF466] |  |  |  |  |  | vi/v0 rMMP-9(A) ([5]; preincubation 0 min at 37 °C): 0.74 ± 0.04; vi/v0 rMMP-9(A) ([5]; preincubation 15 min at 37 °C): 0.68 ± 0.02; vi/v0 rMMP-9(A) ([5]; preincubation 30 min at 37 °C): 0.73 ± 0.05 |
| O=P(O)(O)C(Nc1ccc(Cl)cc1)P(=O)(O)O [ML45] | 37 ± 6 |  |  |  |  | Ki ([3]; bisphosphonates): 17 ± 1 µM |
| O=S(=O)(NCc1cccc(O)c1O)c1ccc(Br)cc1 [BF482] |  |  |  | > 50 |  | inhibition (reduction of activity) of PLN [1, 10]: did not affect |
| O=C(NCc1ccc(-c2ccccc2)cc1)c1cccc(O)c1O [MT336] |  |  | > 50 | > 50 | 13 ± 1 | Ki [3, 9]: 12 ± 1 µM |
| ALN (Staphylococcus aureus) |  |  |  |  |  | Km [6]: 76 ± 7 µM |
| O=S(=O)(NCc1ccc(O)c(O)c1)c1ccc(Br)cc1 [BF486] |  |  |  |  |  | inhibition (reduction of activity) of MMP-9(T) [4, 10]: did not affect |
| COc1ccc(S(=O)(=O)Nc2cccc(O)c2O)cc1 [ML33] |  | > 50 |  |  |  |  |
| O=S(=O)(Nc1ccc(O)c(O)c1)c1ccc(-c2ccccc2)cc1 [BF471] | 9 ± 3 | > 50 | > 50 | > 50 | 13 ± 2 | inhibition at 100 µM [7]: > 50%; Ki [7, 9]: 13 ± 2 µM; inhibition at 100 µM [1]: > 50%; Ki [2]: 49 ± 5 µM; Ki [8]: 57 ± 6 µM |
| COc1ccc(S(=O)(=O)NC(P(=O)(O)O)P(=O)(O)O)cc1 [LS4] | 58 ± 4 |  |  |  |  |  |
| O=S(=O)(Nc1ccc(O)c(O)c1)c1ccc(Br)cc1 [BF489] | 16 ± 3 | > 50 | > 50 | > 50 | 12.6 ± 0.6 | inhibition at 100 µM [7]: > 50%; Ki [7, 9]: 14 ± 5 µM; inhibition at 100 µM [1]: > 50%; Ki [3, 9]: 8.3 ± 0.6 µM; Ki [8]: 73 ± 11 µM |
| O=[N+]([O-])c1ccc(S(=O)(=O)NC(P(=O)(O)O)P(=O)(O)O)cc1 [RC2] | 22 ± 3 |  |  |  |  | Ki ([7]; bisphosphonates): 16.2 ± 0.4 µM |
| O=P(O)(O)C(Nc1ccc(-c2ccccc2)cc1)P(=O)(O)O [MT363] | 12 ± 4 |  |  |  |  | Ki ([7]; bisphosphonates): 7 ± 1 µM; Ki ([3]; bisphosphonates): 7.2 ± 0.6 µM; Ki ([4]; bisphosphonates): 6.6 ± 0.4 µM |
